This assay is described as follows: Biochemical Assay: EZH2 biochemical assay (IC50): Compound potencies were assessed through incorporation of 3H-SAM into a biotinylated H3 peptide. Specifically, 30 pM PRC2 containing wt EZH2 (pentameric complex prepared in-house) was pre-incubated with 450 nM SAM, 450 nM 3H-SAM, 2 μM H3K27me3 activating peptide (H2N-RKQLATKAAR(Kme3)SAPATGGVKKP-amide) and compounds (as 10 point duplicate dose response titrations in DMSO, final assay 0.8% DMSO (v/v)) for 3-5 h in 50 mM Tris (pH 8.5), 1 mM DTT, 0.07 mM Brij-35, 0.1% BSA, and 0.8% DMSO in a total volume of 12.5 μl. Reaction was initiated with biotinylated H3 substrate peptide (H2N-RKQLATKAAR(Kmel)SAPATGGVKKP-NTPEGBiot) as a 2 μM stock in 12.5 μl of buffer and allowed to react at room temperature for 18-22 h. Quenching was accomplished by addition of 20 μl of STOP solution (50 mM Tris (pH 8.5), 200 mM EDTA, 2 mM SAH). 35 μl of the quenched solution was transferred to streptavidin coated FlashPlates (PerkinElmer), incubated 1-2 h, washed, and read in a TopCount Reader (PerkinElmer). IC50s were calculated in Genedata Screener using non-linear least square four parameter fits, where the four parameters were IC50, Hill slope, pre-transitional baseline (0% INH), and post-transitional baseline (100% INH).

Bounds are passed on as bounds.

What is called IC50 is the concentration needed to halve the response being measured. Turning to `Cc1cc(Cl)c(CNC(=O)c2cc(Cl)c3c(c2C)OC(C)(C2CCN(CC(F)(F)F)CC2)O3)c(=O)[nH]1` (single isomer, unassigned), the IC50 was over 10 nM.

Values taken from ChEMBL document CHEMBL5729022, “Modulators of methyl modifying enzymes, compositions and uses thereof” (2022).
